Patent US9096951B2, “Method for producing second-generation library” (Nuevolution A/S, priority 2003, dated 2015)

How the values were obtained:
Type in all cases: binding
[1] = target: integrin aVβ3 (Homo sapiens, UniProt P05106+P06756); experiment: Selection of the 700-member encoded library on immobilised integrin aVβ3, then PCR, cloning and sequencing of identifier codons; conditions: for Count (times the chemical entity's codon was seen after selection): 700-member library after selection, single building block at its position; for Count (times the chemical entity's codon was seen after selection) / share of sequences containing the chemical entity after selection: out of 51 sequences
Procedure: Maxisorp ELISA wells (NUNC A/S, Denmark) were coated with each 100 μL 2 μg/mL integrin aVβ3 in PBS buffer [2.8 mM NaH2PO4, 7.2 mM Na2HPO4, 0.15 M NaCl, pH 7.2] overnight at 4° C. Then the integrin solution was substituted for 200 μl blocking buffer [TBS, 0.05% Tween 20 (Sigma P-9416), 1% bovine serum alnumin (Sigma A-7030), 1 mM MnCl2] which was left on for 3 hours at room temperature. Then the wells were washed 10 times with blocking buffer and the encoded library was added to the wells after diluting it 100 times with blocking buffer. Following 2 hours incubation at room temperature the wells were washed 10 times with blocking buffer. After the final wash the wells were cleared of wash buffer and subsequently inverted and exposed to UV light at 300-350 nm for 30 seconds using a trans-illuminator set at 70% power. Then 100 μl blocking buffer without Tween-20 was immediately added to each well, the wells were shaken for 30 seconds, and the solutions containing eluted identifiers were removed for PCR amplification.
A TOPO-TA (Invitrogen) ligation reaction is assembled with 4 μl PCR product, 1 μl salt solution (Invitrogen) and 1 μl vector. Water is added to 6 μl. The reaction is then incubated at RT for 30 min. Heat-shock competent TOP10 E. coli cells are then thawed on ice and 5 μl of the ligation reaction is added to the thawed cells. The cells are then incubated 30 min on ice, heatshocked in 42° C. water for 30 sec, and then put on ice again. 250 μl of growth medium is added to the cells and they are incubated 1 h at 37° C. The medium containing cells is then spread on a growth plate containing 100 μg/ml ampicillin and incubated at 37° C. for 16 hours.
Individual E. coli clones are then picked and transferred to PCR wells containing 50 μl water. These 50 μl were incubated at 94° C. for 5 minutes and used in a 20 μl in a 25 μl PCR reaction with […] of each TOPO primer M13 forward & M13 reverse and Ready-To-Go PCR beads (Amersham Biosciences). The following PCR profile is used: 94° C. 2 min, then 30×(94° C. 4 sec, 50° C. 30 sec, 72° C. 1, min) then 72° C. 10 min. Primers and nucleotides are then degraded by adding 1 μl 1:1 EXO/SAP mixture (USB corp.) to 2 μl PCR product and incubating at 37° C. for 15 min and then 80° C. for 15 min to heat-inactivate the enzymes. […] T7 primer is added and water is added to 12 μl. Then 8 μl DYEnamic ET cycle sequencing Terminator Mix (Applied biosystems) is added to each well. A thermocycling profile of 30×(95° C. 20 sec, 50° C. 15 sec, 60° C. 1 min) is then run. Then 10 μl water is added to each well and sequencing reactions are purified using seq96 spinplates (Amersham Biosciences). Reactions are then run on a MegaBace capillary electrophoresis instrument (Molecular Dynamics) using injection parameters 2 kV, 50 sec and run parameters: 9 kV 45 min and analyzed using Contig Express software (Informax).
After the selection as described above, the codons in the identifier oligonucleotides were analysed. Before the analysis, the identifier oligonucleotides were amplified using the constant flanking regions and the amplified material was used in the identifier sequence analysis.

[2] = target: T1, Integrin αvβ3 receptor (Homo sapiens, UniProt P05106+P06756); experiment: Selection of the second-generation library (Library 3, 1,365 members) for binders of the Integrin αvβ3 receptor, then sequencing of isolated identifiers; conditions: 31 analysed sequences
Procedure: (§1) The identified sequences were then analyzed for the abundances of building blocks at each position in the sequence. The most abundant building blocks at each position from the two libraries 1 and 2 were then used again to generate a new and smaller library of 1,365 members, which was selected for binders of the Integrin αvβ3 receptor. The library was generated with 7 different building blocks in position 1, 13 different building blocks in position 2 and 15 different building blocks in position 3.
A subset of the isolated sequences from the library post selection was analysed:
These sequences could be translated into the following building block compositions: […]

[3] = target: T1, Integrin αvβ3 receptor; experiment: Selection of Library 1 and Library 2 (61,875 members each) for binders of the Integrin αvβ3 receptor, then building block abundance analysis; conditions: value = library (1, 2) in which it was more abundant after selection; for More abundant in position 3 in library no.: building block chosen for Library 3 position 3; for More abundant in position 2 in library no.: building block chosen for Library 3 position 2
Excerpt: The following scheme describes the split and mix assembly of the libraries: • i.) n times [BB1+Oligo1→BB1−Oligo1] in separate wells • Optionally purify product • ii.) mix all n wells into one tube • iii.) split product of ii.) into m separate wells • iv.) m times [BB2+BB1−Oligo1+Oligo2→BB2−BB1−Oligo1−Oligo2] in separate wells • Optionally purify product • v.) mix all m wells into one tube • vi.) split product of v.) into p separate wells • vii.) p times [BB3+BB2−BB1−Oligo1−Oligo2+Oligo3→BB3−BB2−BB1−Oligo1−Oligo2−Oligo3] in separate wells Optionally purify product • viii.) mix all p wells into one tube • ix.) Selection was performed and binders isolated • x.) PCR of DNA and sequencing • xi.) Analyse for building block abundancy and full sequence information
Building block abundances analysis may be done by QPCR or by sequencing full sequences and then analyzing for the abundance of individual building blocks.
Two libraries of 61,875 members (Library 1 and 2) were generated as described in example 6 above and selected for binders of the Integrin αvβ3 receptor separately. The libraries were generated with 99 different building blocks in position 1, 25 different building blocks in position 2 and 25 different building blocks in position 3.
as §1

integrin aVβ3, sequence (P06756 31-889 limits assumed): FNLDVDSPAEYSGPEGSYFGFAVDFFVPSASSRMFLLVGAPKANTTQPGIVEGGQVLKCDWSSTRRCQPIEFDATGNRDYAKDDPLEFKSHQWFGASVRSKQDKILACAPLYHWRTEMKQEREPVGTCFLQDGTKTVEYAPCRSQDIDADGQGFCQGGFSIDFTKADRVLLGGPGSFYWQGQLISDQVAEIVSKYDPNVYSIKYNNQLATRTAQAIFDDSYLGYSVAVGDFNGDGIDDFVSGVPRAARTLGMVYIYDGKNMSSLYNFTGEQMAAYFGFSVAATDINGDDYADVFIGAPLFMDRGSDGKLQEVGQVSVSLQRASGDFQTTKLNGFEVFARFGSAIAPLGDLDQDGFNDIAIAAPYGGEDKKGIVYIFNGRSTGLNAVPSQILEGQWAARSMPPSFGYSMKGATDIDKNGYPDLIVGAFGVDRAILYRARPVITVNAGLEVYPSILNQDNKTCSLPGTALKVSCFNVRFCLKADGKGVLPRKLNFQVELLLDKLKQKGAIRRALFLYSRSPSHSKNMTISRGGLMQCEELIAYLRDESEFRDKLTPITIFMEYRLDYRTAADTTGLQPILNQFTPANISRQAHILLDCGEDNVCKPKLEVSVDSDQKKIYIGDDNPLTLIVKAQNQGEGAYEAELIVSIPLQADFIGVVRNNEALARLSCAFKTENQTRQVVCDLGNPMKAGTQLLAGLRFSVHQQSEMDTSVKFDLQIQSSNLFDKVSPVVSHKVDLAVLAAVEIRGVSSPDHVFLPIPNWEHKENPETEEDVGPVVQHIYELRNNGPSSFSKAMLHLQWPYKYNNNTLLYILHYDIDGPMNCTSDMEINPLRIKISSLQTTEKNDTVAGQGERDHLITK
integrin aVβ3, sequence (P06756 891-1048 partner limits assumed): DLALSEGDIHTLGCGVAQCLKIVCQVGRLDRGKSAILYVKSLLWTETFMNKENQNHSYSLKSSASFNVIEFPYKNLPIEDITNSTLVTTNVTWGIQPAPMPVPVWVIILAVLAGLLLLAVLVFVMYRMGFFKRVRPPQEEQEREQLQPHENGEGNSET
integrin aVβ3, sequence (P05106 27-788): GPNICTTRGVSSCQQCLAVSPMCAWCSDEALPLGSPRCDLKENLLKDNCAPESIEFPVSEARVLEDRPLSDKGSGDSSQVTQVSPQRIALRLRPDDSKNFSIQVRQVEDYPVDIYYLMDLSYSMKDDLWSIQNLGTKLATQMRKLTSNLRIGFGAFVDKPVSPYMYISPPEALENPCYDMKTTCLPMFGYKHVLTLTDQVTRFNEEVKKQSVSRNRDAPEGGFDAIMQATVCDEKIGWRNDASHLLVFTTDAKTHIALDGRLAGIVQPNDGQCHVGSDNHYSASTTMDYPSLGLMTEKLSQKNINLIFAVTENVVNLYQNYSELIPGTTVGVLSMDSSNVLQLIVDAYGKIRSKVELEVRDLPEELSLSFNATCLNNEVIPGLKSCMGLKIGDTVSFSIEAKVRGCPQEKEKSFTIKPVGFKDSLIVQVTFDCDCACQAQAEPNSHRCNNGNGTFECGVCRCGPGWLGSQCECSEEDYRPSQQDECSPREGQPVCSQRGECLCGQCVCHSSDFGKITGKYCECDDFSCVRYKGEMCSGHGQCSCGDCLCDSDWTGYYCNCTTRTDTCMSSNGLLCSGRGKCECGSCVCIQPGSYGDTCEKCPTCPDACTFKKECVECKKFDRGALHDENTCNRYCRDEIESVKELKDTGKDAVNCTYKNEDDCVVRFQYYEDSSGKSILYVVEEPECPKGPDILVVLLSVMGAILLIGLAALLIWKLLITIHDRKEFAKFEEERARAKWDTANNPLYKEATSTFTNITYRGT
T1 sequence (P06756 31-889 limits assumed): as the sequence (P06756 31-889 limits assumed) above
T1 sequence (P06756 891-1048 partner limits assumed): as the sequence (P06756 891-1048 partner limits assumed) above
T1 sequence (P05106 27-788): as the sequence (P05106 27-788) above

Compound: N[C@@H](CC(=O)O)C(=O)O [BB-A-000098, L-Asp]
- Count (times the chemical entity's codon was seen after selection) [1]: 47
- share of the chemical entity before the selection [1]: 25%
- share of sequences containing the chemical entity after selection [1]: 92%
- building block abundance per position in sequences isolated post selection [2]: dominated
- More abundant in position 3 in library no. [3]: 1

Compound: C=CCCC(=O)N1CCC[C@@H]1C(=O)O [BBA000064]
- Count (times the chemical entity's codon was seen after selection) [1]: 1

Compound: C=CCCC(=O)N[C@@H](C)CC(=O)O [BBA000099, Gly]
- Count (times the chemical entity's codon was seen after selection) [1]: 14
- share of the chemical entity before the selection [1]: 4%
- share of sequences containing the chemical entity after selection [1]: 27%
- building block abundance per position in sequences isolated post selection [2]: dominated

Compound: N[C@H](CC(=O)O)C(=O)O [BBA000152, D-Asp]
- building block abundance per position in sequences isolated post selection [2]: also found
- More abundant in position 1 in library no. ([3]; building block chosen for Library 3 position 1): 1
- More abundant in position 2 in library no. [3]: 2

Compound: O=C(O)CCCNc1ccccn1 [BBA0000531]
- Count (times the chemical entity's codon was seen after selection) [1]: 35
- share of the chemical entity before the selection [1]: 14%
- share of sequences containing the chemical entity after selection [1]: 68%
- More abundant in position 3 in library no. [3]: 2

Compound: C=CCCC(=O)NCC(=O)O [BBA0000592]
- More abundant in position 2 in library no. [3]: 1

Compound: C=CCCC(=O)N1CCCC(C(=O)O)C1 (stereo not shown) [BBA0000832]
- More abundant in position 2 in library no. [3]: 1

Compound: O=C(O)CCCc1ccc2c(n1)NCCC2 [BBA0001006]
- Count (times the chemical entity's codon was seen after selection) [1]: 4

Compound: C=CCCC(=O)C(CCC(=O)O)CC1CC1 (stereo not shown) [BBA0001011]
- Count (times the chemical entity's codon was seen after selection) [1]: 1

Compound: C=CCCC(=O)N(CCC)CCC(=O)O [BBA0001101]
- Count (times the chemical entity's codon was seen after selection) [1]: 2

Compound: CC(CCC(=O)O)Nc1ccccn1 (stereo not shown) [BBA0001391]
- Count (times the chemical entity's codon was seen after selection) [1]: 9
- More abundant in position 3 in library no. [3]: 2

Compound: CC(CCCC(=O)O)Nc1ccccn1 (stereo not shown) [BBA0001401]
- More abundant in position 3 in library no. [3]: 2

Compound: C=CCCC(=O)N1CC(C(=O)O)C1 [BBA0001582]
- Count (times the chemical entity's codon was seen after selection) [1]: 13

Compound: C=CCCC(=O)NCc1cccc(C(=O)O)c1 [BBA0003132]
- Count (times the chemical entity's codon was seen after selection) [1]: 1

Compound: C=CCCC(=O)N1CCC[C@H]1C(=O)O [BBA0003142]
- Count (times the chemical entity's codon was seen after selection) [1]: 1

Compound: C=CCCC(=O)N[C@H]1CCCC[C@H]1C(=O)O [BBA0003152]
- Count (times the chemical entity's codon was seen after selection) [1]: 1

Compound: C=CCCC(=O)NCc1ccc(C(=O)O)cc1 [BBA0003172]
- Count (times the chemical entity's codon was seen after selection) [1]: 2

Compound: C=CCCC(=O)NCCCC(=O)O [BBA0004182]
- Count (times the chemical entity's codon was seen after selection) [1]: 5

Compound: C=CCCC(=O)N[C@H]1CC[C@@H](C(=O)O)C1 [BBA0004212]
- Count (times the chemical entity's codon was seen after selection) [1]: 2

Compound: C=CCCC(=O)N[C@@H]1CC[C@H](C(=O)O)C1 [BBA0004222]
- More abundant in position 2 in library no. [3]: 2

Compound: C=CCCC(=O)N1CCCC[C@H]1C(=O)O [BBA0004232]
- Count (times the chemical entity's codon was seen after selection) [1]: 2

Compound: C=CCCC(=O)N1CCCC[C@@H]1C(=O)O [BBA0004242]
- Count (times the chemical entity's codon was seen after selection) [1]: 6

Compound: CC(C)(C)OC(=O)NC(CCCCNC(=O)c1ccccn1)C(=O)O (stereo not shown) [BBA0008312]
- Count (times the chemical entity's codon was seen after selection) [1]: 1

Compound: O=C(O)c1csc(-c2cccnc2)n1 [BBA0008512]
- Count (times the chemical entity's codon was seen after selection) [1]: 2
